This is an account of results in ChEMBL document CHEMBL5291721, “A preclinical secondary pharmacology resource illuminates target-adverse drug reaction associations of marketed drugs” (Nat Commun, 2023).

Among the targets are Histamine H3 receptor (Homo sapiens, UniProt Q9Y5N1); Mu-type opioid receptor (Homo sapiens, UniProt P35372); D(3) dopamine receptor (Homo sapiens, UniProt P35462); D(1A) dopamine receptor (Homo sapiens, UniProt P21728).
For the next test, the target named is T1, Estrogen receptor (Homo sapiens, UniProt P03372).
T1 sequence (P03372 whole entry): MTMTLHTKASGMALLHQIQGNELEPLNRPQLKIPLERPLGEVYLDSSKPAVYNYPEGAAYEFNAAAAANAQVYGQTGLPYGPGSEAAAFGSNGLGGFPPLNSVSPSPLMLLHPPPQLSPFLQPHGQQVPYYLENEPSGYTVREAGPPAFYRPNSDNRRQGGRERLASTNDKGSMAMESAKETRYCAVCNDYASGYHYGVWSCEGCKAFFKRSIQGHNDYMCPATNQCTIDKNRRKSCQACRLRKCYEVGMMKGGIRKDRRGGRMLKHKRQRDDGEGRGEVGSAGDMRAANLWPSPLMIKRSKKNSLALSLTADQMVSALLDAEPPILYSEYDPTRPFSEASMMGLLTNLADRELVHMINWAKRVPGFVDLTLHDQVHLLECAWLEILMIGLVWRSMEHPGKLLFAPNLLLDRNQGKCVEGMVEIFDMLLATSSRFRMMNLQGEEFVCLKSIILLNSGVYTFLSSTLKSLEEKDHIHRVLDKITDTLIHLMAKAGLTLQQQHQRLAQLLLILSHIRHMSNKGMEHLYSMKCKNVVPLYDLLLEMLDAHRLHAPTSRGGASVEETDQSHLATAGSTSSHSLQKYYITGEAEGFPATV

Test [1] addresses Sodium-dependent dopamine transporter (Homo sapiens, UniProt Q01959).
The target of test [2] is T2, Alpha-2A adrenergic receptor (Homo sapiens, UniProt P08913).
T2 sequence (P08913 whole entry): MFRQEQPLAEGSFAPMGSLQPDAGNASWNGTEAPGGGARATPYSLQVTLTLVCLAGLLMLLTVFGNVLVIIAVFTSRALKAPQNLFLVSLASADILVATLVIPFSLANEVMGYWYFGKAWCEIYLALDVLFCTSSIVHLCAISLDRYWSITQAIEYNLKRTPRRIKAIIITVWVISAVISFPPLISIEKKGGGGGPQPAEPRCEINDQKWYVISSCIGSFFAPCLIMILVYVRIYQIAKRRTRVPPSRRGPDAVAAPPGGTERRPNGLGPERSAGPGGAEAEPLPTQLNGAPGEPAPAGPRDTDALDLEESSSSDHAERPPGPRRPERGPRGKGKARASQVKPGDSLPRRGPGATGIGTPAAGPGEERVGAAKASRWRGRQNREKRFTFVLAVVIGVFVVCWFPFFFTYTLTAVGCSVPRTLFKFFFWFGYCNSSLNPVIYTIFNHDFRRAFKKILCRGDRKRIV

Test [3] concerns the target 3',5'-cyclic-AMP phosphodiesterase 4A (Homo sapiens, UniProt P27815). It counts as functional.
Test [4] has as its target Prostaglandin G/H synthase 1 (Homo sapiens, UniProt P23219). It counts as functional.
The target in test [5] is Voltage-gated inwardly rectifying potassium channel KCNH2 (Homo sapiens, UniProt Q12809). It counts as functional. As to conditions: read-out: AC50.
Test [6] has as its target Sodium-dependent serotonin transporter (Homo sapiens, UniProt P31645).
For a further test, the target named is Prothrombin (Homo sapiens, UniProt P00734). It is filed as functional.
Test [7] concerns the target T3, 5-hydroxytryptamine receptor 1A (Homo sapiens, UniProt P08908).
T3 sequence (P08908 whole entry): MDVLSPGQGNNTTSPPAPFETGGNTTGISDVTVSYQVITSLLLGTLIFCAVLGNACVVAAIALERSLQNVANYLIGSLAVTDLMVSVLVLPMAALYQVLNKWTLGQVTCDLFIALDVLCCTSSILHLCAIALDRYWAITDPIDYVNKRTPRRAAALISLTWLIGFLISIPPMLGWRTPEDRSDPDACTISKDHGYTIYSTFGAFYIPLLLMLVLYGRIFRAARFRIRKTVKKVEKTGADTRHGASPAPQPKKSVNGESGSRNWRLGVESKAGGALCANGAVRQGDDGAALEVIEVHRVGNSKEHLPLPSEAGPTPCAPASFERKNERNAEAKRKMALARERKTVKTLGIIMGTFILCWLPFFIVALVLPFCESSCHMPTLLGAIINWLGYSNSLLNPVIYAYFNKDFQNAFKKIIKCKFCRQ

For the next test, the target named is T4, Adenosine receptor A3 (Homo sapiens, UniProt P0DMS8).
T4 sequence (P0DMS8 whole entry): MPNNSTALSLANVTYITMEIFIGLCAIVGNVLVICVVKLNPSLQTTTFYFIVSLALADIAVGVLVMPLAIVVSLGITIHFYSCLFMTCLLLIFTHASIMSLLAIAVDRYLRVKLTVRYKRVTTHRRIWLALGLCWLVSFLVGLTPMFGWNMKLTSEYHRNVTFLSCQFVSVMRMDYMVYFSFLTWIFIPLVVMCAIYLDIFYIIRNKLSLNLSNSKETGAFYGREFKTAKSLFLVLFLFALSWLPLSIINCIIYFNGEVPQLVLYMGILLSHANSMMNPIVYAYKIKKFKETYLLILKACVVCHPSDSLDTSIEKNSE

The target in a further test is T5, Thromboxane A2 receptor (Homo sapiens, UniProt P21731).
T5 sequence (P21731 whole entry): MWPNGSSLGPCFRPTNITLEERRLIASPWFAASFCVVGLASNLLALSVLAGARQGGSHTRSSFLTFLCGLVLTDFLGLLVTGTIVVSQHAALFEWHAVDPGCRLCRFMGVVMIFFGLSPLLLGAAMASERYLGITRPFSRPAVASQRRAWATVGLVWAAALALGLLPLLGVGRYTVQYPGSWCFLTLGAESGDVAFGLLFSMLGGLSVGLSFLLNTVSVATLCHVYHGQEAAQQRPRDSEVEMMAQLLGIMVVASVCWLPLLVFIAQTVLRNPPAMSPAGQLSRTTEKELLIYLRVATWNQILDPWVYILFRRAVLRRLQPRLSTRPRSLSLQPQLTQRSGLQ
It counts as functional, cell-based.

Some results are limits rather than exact numbers.
Further: assay procedure not described here.

Sodium-dependent dopamine transporter, sequence (Q01959 whole entry): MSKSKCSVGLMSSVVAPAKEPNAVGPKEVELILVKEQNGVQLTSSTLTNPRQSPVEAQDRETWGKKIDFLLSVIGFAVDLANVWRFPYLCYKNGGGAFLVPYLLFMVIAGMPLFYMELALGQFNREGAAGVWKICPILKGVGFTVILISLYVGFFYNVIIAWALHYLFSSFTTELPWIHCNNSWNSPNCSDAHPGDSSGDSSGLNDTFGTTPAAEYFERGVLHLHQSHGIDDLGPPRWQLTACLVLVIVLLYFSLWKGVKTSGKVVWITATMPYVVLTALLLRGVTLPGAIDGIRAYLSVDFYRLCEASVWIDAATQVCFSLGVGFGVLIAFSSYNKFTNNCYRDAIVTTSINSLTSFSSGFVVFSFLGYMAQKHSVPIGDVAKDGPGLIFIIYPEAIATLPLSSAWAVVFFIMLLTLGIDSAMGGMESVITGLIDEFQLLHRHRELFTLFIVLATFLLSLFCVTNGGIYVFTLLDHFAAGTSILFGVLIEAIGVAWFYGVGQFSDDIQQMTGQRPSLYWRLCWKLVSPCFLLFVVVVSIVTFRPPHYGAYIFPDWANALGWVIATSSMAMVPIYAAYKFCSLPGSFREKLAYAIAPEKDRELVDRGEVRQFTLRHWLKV
D(3) dopamine receptor, sequence (P35462 whole entry): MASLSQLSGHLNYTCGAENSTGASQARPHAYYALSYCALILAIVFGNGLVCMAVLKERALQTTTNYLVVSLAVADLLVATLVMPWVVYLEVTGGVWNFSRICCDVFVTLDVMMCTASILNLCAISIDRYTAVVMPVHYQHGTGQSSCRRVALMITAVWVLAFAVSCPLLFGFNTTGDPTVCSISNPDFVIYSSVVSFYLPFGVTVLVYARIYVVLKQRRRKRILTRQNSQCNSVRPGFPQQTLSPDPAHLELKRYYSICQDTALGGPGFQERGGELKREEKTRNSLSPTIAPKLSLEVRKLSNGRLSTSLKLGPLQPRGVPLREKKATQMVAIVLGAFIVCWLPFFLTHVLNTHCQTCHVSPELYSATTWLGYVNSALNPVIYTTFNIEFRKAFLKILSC
Sodium-dependent serotonin transporter, sequence (P31645 whole entry): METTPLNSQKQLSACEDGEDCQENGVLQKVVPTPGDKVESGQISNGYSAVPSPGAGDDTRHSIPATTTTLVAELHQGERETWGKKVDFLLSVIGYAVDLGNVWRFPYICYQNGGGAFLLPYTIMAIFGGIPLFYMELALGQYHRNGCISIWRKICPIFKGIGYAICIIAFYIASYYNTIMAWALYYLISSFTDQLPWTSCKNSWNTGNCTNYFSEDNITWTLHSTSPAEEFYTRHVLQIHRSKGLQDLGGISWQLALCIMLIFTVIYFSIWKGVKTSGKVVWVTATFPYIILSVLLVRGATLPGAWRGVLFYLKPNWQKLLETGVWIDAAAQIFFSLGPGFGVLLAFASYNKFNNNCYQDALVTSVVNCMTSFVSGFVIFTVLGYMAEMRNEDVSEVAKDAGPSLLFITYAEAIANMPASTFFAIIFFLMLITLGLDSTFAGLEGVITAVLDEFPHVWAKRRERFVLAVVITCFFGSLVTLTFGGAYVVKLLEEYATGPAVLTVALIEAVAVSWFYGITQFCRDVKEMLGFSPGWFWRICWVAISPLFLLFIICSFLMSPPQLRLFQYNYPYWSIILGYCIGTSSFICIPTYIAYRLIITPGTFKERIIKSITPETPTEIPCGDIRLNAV
3',5'-cyclic-AMP phosphodiesterase 4A, sequence (P27815 whole entry): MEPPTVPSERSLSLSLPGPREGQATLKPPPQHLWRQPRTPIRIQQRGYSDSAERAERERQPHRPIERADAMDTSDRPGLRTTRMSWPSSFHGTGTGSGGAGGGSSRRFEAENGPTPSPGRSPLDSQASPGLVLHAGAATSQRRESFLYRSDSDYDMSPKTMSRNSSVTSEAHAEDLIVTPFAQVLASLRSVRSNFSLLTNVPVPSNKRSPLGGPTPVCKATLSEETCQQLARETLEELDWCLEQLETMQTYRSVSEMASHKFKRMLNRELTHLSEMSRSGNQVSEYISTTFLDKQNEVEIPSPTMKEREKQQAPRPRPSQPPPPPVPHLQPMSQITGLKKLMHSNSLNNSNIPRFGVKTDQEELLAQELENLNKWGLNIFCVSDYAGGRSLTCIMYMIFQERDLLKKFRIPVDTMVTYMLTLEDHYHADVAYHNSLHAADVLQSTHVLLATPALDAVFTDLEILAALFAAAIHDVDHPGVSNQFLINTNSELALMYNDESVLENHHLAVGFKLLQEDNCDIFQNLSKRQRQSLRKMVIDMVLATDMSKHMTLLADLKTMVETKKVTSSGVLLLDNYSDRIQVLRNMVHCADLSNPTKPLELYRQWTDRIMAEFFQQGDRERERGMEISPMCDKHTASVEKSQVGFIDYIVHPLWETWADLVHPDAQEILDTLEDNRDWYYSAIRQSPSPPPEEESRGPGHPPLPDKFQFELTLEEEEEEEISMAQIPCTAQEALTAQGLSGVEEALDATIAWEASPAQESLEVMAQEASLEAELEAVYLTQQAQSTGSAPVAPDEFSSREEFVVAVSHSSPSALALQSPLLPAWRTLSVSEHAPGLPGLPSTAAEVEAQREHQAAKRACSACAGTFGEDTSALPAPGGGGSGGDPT
Histamine H3 receptor, sequence (Q9Y5N1 whole entry): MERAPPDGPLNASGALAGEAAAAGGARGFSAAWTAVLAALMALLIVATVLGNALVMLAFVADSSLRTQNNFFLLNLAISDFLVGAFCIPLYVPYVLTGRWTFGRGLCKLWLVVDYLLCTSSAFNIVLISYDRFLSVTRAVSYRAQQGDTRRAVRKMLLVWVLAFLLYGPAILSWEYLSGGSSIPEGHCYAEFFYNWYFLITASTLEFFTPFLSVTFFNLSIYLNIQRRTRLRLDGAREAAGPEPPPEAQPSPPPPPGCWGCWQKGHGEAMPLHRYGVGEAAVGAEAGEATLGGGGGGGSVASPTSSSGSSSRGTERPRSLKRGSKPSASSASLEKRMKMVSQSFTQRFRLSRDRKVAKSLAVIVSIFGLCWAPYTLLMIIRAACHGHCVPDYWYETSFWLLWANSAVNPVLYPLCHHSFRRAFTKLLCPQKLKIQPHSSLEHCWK
Mu-type opioid receptor, sequence (P35372 whole entry): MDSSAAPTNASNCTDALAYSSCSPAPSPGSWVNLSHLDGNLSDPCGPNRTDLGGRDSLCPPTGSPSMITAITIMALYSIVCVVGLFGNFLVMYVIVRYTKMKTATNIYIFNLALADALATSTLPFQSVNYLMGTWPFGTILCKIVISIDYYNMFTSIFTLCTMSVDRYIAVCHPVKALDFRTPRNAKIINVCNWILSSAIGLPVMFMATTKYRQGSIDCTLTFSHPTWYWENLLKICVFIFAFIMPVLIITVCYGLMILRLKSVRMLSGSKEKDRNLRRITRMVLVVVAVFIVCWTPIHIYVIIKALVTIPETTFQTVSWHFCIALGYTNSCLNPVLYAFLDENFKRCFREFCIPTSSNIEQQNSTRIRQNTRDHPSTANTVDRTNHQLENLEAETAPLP
D(1A) dopamine receptor, sequence (P21728 whole entry): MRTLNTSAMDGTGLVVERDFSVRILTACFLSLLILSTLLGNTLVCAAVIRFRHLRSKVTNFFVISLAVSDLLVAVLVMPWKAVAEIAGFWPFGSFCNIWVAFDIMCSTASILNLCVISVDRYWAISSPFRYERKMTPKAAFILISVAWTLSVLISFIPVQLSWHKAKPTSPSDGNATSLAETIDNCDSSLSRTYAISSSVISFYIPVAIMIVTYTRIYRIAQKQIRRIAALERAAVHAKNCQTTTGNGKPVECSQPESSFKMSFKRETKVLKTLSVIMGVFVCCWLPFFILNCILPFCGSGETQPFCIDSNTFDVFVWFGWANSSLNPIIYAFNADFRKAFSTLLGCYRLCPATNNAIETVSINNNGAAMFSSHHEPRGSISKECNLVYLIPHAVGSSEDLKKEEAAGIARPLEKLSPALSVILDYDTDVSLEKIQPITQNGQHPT
Prostaglandin G/H synthase 1, sequence (P23219 whole entry): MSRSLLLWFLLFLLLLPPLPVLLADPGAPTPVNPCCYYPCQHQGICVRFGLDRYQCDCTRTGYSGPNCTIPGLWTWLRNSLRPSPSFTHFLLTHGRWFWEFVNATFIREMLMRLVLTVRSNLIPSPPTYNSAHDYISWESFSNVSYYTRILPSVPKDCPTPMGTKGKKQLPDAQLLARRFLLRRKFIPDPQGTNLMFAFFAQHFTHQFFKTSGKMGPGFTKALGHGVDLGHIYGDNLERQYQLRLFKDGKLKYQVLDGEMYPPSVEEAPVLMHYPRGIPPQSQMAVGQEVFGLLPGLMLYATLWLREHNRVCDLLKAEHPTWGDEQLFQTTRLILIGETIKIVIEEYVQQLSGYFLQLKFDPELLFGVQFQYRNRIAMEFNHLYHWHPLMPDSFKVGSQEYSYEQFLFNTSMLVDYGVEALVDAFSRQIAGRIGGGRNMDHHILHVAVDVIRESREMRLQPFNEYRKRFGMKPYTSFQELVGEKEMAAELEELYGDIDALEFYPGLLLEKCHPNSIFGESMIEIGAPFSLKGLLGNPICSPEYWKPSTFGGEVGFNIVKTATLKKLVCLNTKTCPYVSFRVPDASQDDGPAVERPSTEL

As usually defined, the AC50 is the midpoint of the concentration-response curve, whichever way the signal moves. As to `CC(=O)OC(C)C[N+](C)(C)C` (centres undefined) [METHACHOLINE], the AC50 (on Estrogen receptor; in [1]; in test [2]; in test [3]; at Histamine H3 receptor; on Mu-type opioid receptor) was > 30 µM throughout. Also, the AC50 (in [4]; in test [5]; in [6]; at D(3) dopamine receptor; at D(1A) dopamine receptor; at Prothrombin) was > 30 µM throughout. Besides, the AC50 (in test [7]; at Adenosine receptor A3) was > 30 µM each time.
`C[C@@H]1C[C@H]2[C@@H]3C[C@H](F)C4=CC(=O)C(Cl)=C[C@]4(C)[C@@]3(F)[C@@H](O)C[C@]2(C)[C@@]1(O)C(=O)CO` [HALOMETASONE]: the AC50 on Estrogen receptor was > 30 µM; in test [1] it was > 30 µM; in test [2], > 30 µM; on Thromboxane A2 receptor, 18.6 µM; in test [3] it was > 30 µM; at Histamine H3 receptor, > 30 µM. Moreover, the AC50 (at Mu-type opioid receptor; in [4]; in test [5]; in [6]; on D(1A) dopamine receptor; on Prothrombin) was > 30 µM each time. Further, the AC50 (in test [7]; on Adenosine receptor A3) was > 30 µM each time.
Turning to `CCC1C(C)=NN=C(c2ccc(OC)c(OC)c2)c2cc(OC)c(OC)cc21` (centres undefined) [TOFISOPAM], the AC50 at Estrogen receptor is > 30 µM; in test [1], > 30 µM; in test [2], > 30 µM; on Thromboxane A2 receptor, > 30 µM; in test [3] it was 0.319 µM; on Histamine H3 receptor, > 30 µM. The AC50 (on Mu-type opioid receptor; in test [4]; in test [5]; in [6]; at D(1A) dopamine receptor; at Prothrombin) was > 30 µM throughout. Moreover, the AC50 (in [7]; at Adenosine receptor A3) was > 30 µM each time.
Take `NS(=O)(=O)c1cc2c(cc1Cl)NC(C1CC3C=CC1C3)NS2(=O)=O` (centres undefined) [CYCLOTHIAZIDE]: the concentration at half-maximal activity (AC50) (on Estrogen receptor; in [1]; in test [2]; at Thromboxane A2 receptor; in test [3]; at Histamine H3 receptor) was > 30 µM throughout. The AC50 (at Mu-type opioid receptor; in test [4]; in test [5]; in test [6]; at D(1A) dopamine receptor; on Prothrombin) was > 30 µM throughout. For the same molecule, the AC50 (in test [7]; on Adenosine receptor A3) was > 30 µM in each case.
As for `CCO[C@@H](Cc1ccc(OCCn2c(C)ccc2-c2ccc(SC)cc2)cc1)C(=O)O` [SAROGLITAZAR], the half-maximal activity concentration (AC50) at Estrogen receptor was > 30 µM; in test [1], > 30 µM; in [2] it was > 30 µM; in [3], 11.1 µM; on Histamine H3 receptor, > 30 µM; on Mu-type opioid receptor it was > 30 µM. The AC50 in [4] was > 30 µM; in test [5] it was > 30 µM; in test [6], > 30 µM; on D(3) dopamine receptor, 22.2 µM; on D(1A) dopamine receptor, > 30 µM; at Prothrombin, > 30 µM. Moreover, the AC50 is > 30 µM in [7] and 14.9 µM at Adenosine receptor A3.
As to `CC(C)Cc1ccc(C(C)C(=O)NO)cc1` (centres undefined) [IBUPROXAM], the AC50 on Estrogen receptor is > 30 µM; in test [1], > 30 µM; in [2], > 30 µM; on Thromboxane A2 receptor, > 30 µM; in test [3], 24.2 µM; on Histamine H3 receptor it was > 30 µM. Further, the AC50 (on Mu-type opioid receptor; in [5]; in test [6]; at D(3) dopamine receptor; at D(1A) dopamine receptor; at Prothrombin) was > 30 µM throughout. Moreover, the AC50 (in [7]; on Adenosine receptor A3) was > 30 µM in each case.
